In a melting point compilation (Tetko et al.; mined from patent text by program, amines drawn as free bases though some values may be those of a salt):

melting point | SMILES
68 to 70 °C | C=CCONC(=O)n1nc(Oc2c(Cl)cc(C(F)(F)F)cc2Cl)cc1C
32 to 33 °C | FC(F)(F)C(Cc1ccccc1)(C(F)(F)F)C(F)(F)F
85 to 88 °C | O=C(O)CNC(=O)CCCC1CCCCC1
197 °C | NC(N)=Nc1nc(N2CCOCC2)nc2ccccc12
206 to 208 °C | Cc1ccc(CS(=O)c2nc3cc4c(cc3[nH]2)OC(F)(F)O4)nc1 (configuration not stated)
144 to 147 °C | CNC(=O)Nc1cc(C2(C)CC2)on1
77 to 80 °C | Cc1c(C#N)sc(Br)c1Br
114 to 115 °C | CS(=O)(=O)c1ccc(C2=C(c3ccc(CO)cc3)CCC2)cc1
120 to 121 °C | O=C(O)Cc1cn(-c2ccccc2)nc1-c1ccccc1
97 to 98 °C | CN1CCN(CC/C=C/c2ccc3ncc(C#N)c(Nc4ccc(Cl)cc4Cl)c3c2)CC1
128 to 130 °C | CCCn1cc(-c2ccc3nnn(Cc4ccc5ncccc5c4)c3n2)cn1
106 to 108 °C | CC(C)Cc1ccc(C(CC(=O)O)C(=O)O)s1 (configuration not stated)
178 °C | N#Cc1ccc(NC(=O)[C@H](CC(=O)O)NCc2ccccc2)cc1
143 to 144 °C | O=C1NC(=O)C(S(=O)(=O)c2ccc(Cl)cc2)S1 (configuration not stated)
188 to 190 °C | CN(C)CCC1CCCCN1C(=O)N1c2ccccc2C(=O)Nc2cccnc21 (configuration not stated)
170 to 171 °C | CCOC(=O)c1cn(C2CC2)c2c(F)c(F)c(F)c(F)c2c1=O
216 to 217 °C | CN(C)C1CCN(C(=O)c2ccc(-c3[nH]nc4c3C(=O)c3c(NC(=O)NN5CCOCC5)cccc3-4)s2)C1 (configuration not stated)
306 to 312 °C | Cc1cc(C)nc(-n2nc(S(=O)(=O)Nc3c(Cl)cccc3Cl)nc2N)n1
75 to 80 °C | Cc1oc(-c2ccccc2)nc1CCCc1ccc(CC(C(=O)O)c2cccc(-c3ccccc3)c2)cc1 (configuration not stated)
154 to 155 °C | c1cnc(SCc2nc3ccccc3[nH]2)nc1
58 to 60 °C | C=C(F)CCc1cccc(C2(c3ccc(OC(F)F)cc3)N=C(N)N(C)C2=O)c1 (configuration not stated)

melting point | SMILES
65 to 70 °C | O=C(O)c1ccc(NC(=O)C(CS)Cc2ccccc2)cc1Cl (configuration not stated)
179 to 180 °C | Cc1csc(C(=O)O)c1NC(=O)OC(C)(C)C
143 to 146 °C | Cc1ccc(N(Cc2cccnc2)S(C)(=O)=O)cc1
186 to 188 °C | Fc1ccccc1CSc1nc2cnccc2[nH]1
99 to 120 °C | N=C(N)NC(=O)Cn1c(Cc2cccs2)ccc1-c1ccccc1
217 to 221 °C | N#Cc1ccc(-c2cn(-c3ccc(Br)cc3)c(C(=O)O)c2C(=O)O)cc1
62 to 63 °C | O=c1oc2cccnc2n1CCCN1CCN(c2cccc(C(F)(F)F)c2)CC1
139 to 141 °C | CSc1nc(NC2CC2)nc(Cl)c1C#N
77 to 79 °C | CC(=O)Oc1ccccc1C(=O)Oc1cccc(CO)c1
131 to 132 °C | Cc1nn(-c2cccc(N)c2)c2c1C(=O)CC(C)(C)C2
138 to 140 °C | Cc1ccc(NC(=S)Nc2ncccc2OCc2c(F)cccc2Cl)cc1
> 300 °C | CC(=O)Nc1ccc2nc(-c3cc(C)c(OCCO)c(C)c3)[nH]c(=O)c2c1
135 to 140 °C | CN(CCOC[C@@H]1CC(c2ccc(-c3ccc(N4C[C@H](Cn5ccnn5)OC4=O)cc3F)cn2)=NO1)CC(=O)O
96 to 98 °C | CCOP(=O)(OCC)C(O)=Cc1nn(-c2ccc(F)cc2)cc1-c1ccc(Cl)cc1
224 to 225 °C | CCCCc1csc2ccc3[nH]c4c(c3c12)CNCC4
193 to 195 °C | Cc1cc(C)cc(C(=O)NC(C(N)=O)n2cccn2)c1 (configuration not stated)
88 to 89 °C | CC(C)Oc1ccc(CCCOc2cc(CCC(=O)O)n(C)n2)c(Oc2ncc(C(F)(F)F)cc2Cl)c1
156 to 158 °C | CCc1noc(C)c1-c1[nH]c2ccccc2c1CCCCN(C)C
203 to 204 °C | O=C(O)Cc1ccc2c(c1)CCc1cccnc1O2
70 to 72 °C | CC(=O)c1cc2c(cc1O)CCCC2

SMILES | melting point
CNC(Cc1cc(Br)cc(Br)c1N)c1sccc1C (configuration not stated) | 141 to 143 °C
